Assay results: patent publication US7001905B2, “Substituted diarylamines as MEK inhibitors” (Warner-Lambert Company, priority 2000, dated 2006)

Legend:
[1] = target: T1, MEK (Homo sapiens, UniProt Q02750); test: in vitro MEK assay; assay type: biochemical
T1 construct: no tag is given for the 2D mutant
In short: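 GST-MEK (10 μg) or activated GST-MEK-2E (S218E/S222E, 5 μg) phosphorylates kinase-dead GST-MAPK-KA (K71A, 5 μg) with 10 μM [γ-32P]ATP in 50 mM Tris pH 7.5 for 15 min at 30 °C. Read-out: SDS-PAGE, autoradiography and scintillation counting of excised bands.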

T1 sequence (Q02750 whole entry S218D/S222D, form open): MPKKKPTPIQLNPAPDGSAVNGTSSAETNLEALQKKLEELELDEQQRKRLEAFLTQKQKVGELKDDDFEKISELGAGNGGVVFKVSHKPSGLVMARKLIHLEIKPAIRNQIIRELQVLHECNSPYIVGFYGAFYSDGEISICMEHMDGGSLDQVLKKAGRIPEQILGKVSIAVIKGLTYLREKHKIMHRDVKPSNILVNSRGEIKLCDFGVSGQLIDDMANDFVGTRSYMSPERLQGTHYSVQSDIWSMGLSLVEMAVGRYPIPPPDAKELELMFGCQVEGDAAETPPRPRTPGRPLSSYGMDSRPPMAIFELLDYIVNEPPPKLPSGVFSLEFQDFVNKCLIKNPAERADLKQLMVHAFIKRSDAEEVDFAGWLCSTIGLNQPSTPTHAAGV

## CNC(=O)c1cc(C(=O)NOCC2CC2)c(Nc2ccc(I)cc2C)c(F)c1F [Example 4, N^1-Cycloprolylmethoxy-4,5-difluoro-6-(4-iodo-2-methyl-phenylamino)-N^3-methyl-isophthalamide]
other
  melting point: 198 to 202 °C
[1]
  IC50: 1.1 µM

## CNC(=O)c1cc2c(c(F)c1F)N(c1ccc(I)cc1C)COC2=O [Example 2, 7,8-Difluoro-1-(4-iodo-2-methyl-phenyl)-4-oxo-1,4-dihydro-2H-benzo[d][1,3]oxazine-6-carboxylic acid methylamide]
other
  melting point: 219 to 223 °C
[1]
  IC50: 6.6 µM

## Cc1cc(I)ccc1Nc1c(C(=O)NOCC2CC2)cc(C(=O)N(C)C)c(F)c1F [Example 6, N^1-Cyclopropylmethoxy-4,5-difluoro-6-(4-iodo-2-methyl-phenylamino)-N^3,N^3-dimethyl-isophthalamide]
other
  melting point: 78 to 80 °C
[1]
  IC50: 4.3 µM

## CNC(=O)c1cc(C(=O)O)c(Nc2ccc(I)cc2C)c(F)c1F [Example 3, 4,5-Difluoro-6-(-4-iodo-2-methyl-phenylamino)-N-methyl-isophthalamic acid]
other
  melting point: 254 to 259 °C
[1]
  IC50: 2.4 µM

## Cc1cc(I)ccc1N1COC(=O)c2cc(C(=O)Nc3cccnc3)c(F)c(F)c21 [Example 37, 7,8-Difluoro-1-(4-iodo-2-methyl-phenyl)-4-oxo-1,4-dihydro-2H-3,1-benzoxazine-6-carboxylic acid pyridin-3-ylamide]
[1]
  in vitro MEK assay: % inhibition @ 1 μM: 20%

## Cc1cc(I)ccc1N1COC(=O)c2cc(C(=O)Nc3ccc(Cl)nc3)c(F)c(F)c21 [Example 45]
[1]
  in vitro MEK assay: % inhibition @ 1 μM: 62%
